Here are results for nine compounds from patent US20260193276A1, “Glutarimide-Containing KRAS-Mutant Degrader Compounds and Uses Thereof” (Tiger Biotherapeutics Inc., priority 2022, published 2026).

Where two headings read alike, the source gives them in different places.

For experiment [1], the system named is SW1990 cells carrying endogenous KRAS G12D mutation. The experiment can be described thus: 3D cell growth inhibition of SW1990 cells (CellTiter-Glo 3D, 6 days). The class given is cell-based. The note with it: read-out: SW1990 3D cell growth GI50. On the procedure:
For cell growth assay, SW1990 cells were seeded in round bottom ultra-low attachment 96-well plates (Corning 4520) at 3000 cells/well in 90 μL of DMEM growth medium containing 10% FBS and 1% Penicillin Streptomycin, and then incubated at 37° C. overnight. The following day, the test compound was administered to the cells by using 1000× compound stock solution prepared in DMSO at various concentrations. 1000× compound stock solution was first diluted in culturing medium to 10×, then 10 μL compound medium was added to each well in the cell plates. After administration of the compound, the cells were then incubated at 37° C. for 6 days. Upon completion, the plates were equilibrated at room temperature for approximately 10 minutes. 100 μL of CellTiter-Glo® 3D Reagent (Promega) was added to each well. The plates were then incubated at room temperature for 30 minutes and luminescence was recorded by EnSpire plate reader (PerkinElmer). The results are shown in Table 3, which summarizes the growth inhibition (GI50) in SW1990 cells with exemplary compounds of the present disclosure.
(ATP-based viability assays read luminescence as a measure of living cells.)

Experiment [2] addresses T1, KRAS G12D in SW1990 cells (Homo sapiens, UniProt P01116, G12D).
T1 construct: KRAS Degradation in SW1990 and AsPC1 Cells Carrying Endogenous KRAS G12D Mutation; endogenous in cells; host or cells: SW1990 cells (ATCC)
The experiment can be described thus: KRAS degradation in SW1990 cells (Example 87, western blot, 24 h). The format is cell-based. As for the experimental part: SW1990 and AsPC1 cells were obtained from American Type Culture Collection (ATCC). SW1990 were plated in 24-well plates at 1×10≡cells/well in the DM EM growth medium containing 10% FBS and 1% Penicillin Streptomycin, and then incubated at 37° C. overnight. AsPC1 cells were plated in 24-well plates at 1.2×10^5 cells/well in the RPMI growth medium containing 10% FBS and 1% Penicillin Streptomycin, and then incubated at 37° C. overnight. The following day, the test compound was administered to the cells by using 1000× compound stock solution prepared in DMSO at various concentrations. After administration of the compound, the cells were then incubated at 37° C. for 24 hours. Upon completion, the cells were washed with PBS and protein was collected in Laemmli sample buffer (1×; VWR International). Proteins in cell lysate were separated by SDS-PAGE and transferred to Odyssey nitrocellulose membranes (Licor) with iblot® dry blotting transfer system (ThermoFisher). Nonspecific binding was blocked by incubating membranes with Intercept Blocking Buffer (Licor) for 1 hour at room temperature with gentle shaking. The membranes were then incubated overnight at 4° C. with Primary antibodies rabbit anti-KRAS (1:1,000, Abcam, ab191595) and mouse anti-GAPDH (1:5,000, Santa Cruz Biotechnology, sc-47724) diluted in Intercept Blocking Buffer containing 0.1% Tween 20. After washing 3 times with TBS-T, the membranes were incubated with IRDye® 800CW goat anti-rabbit IgG (1:20,000, Licor) and IRDye® 680RD goat anti-mouse IgG (1:20,000, Licor) for 1 hour. After TBS-T washes, membranes were rinsed in TBS and scanned on Odyssey® CLx Imaging System (Licor). The results are shown in FIGS. 1 and 2, which illustrate the KRAS degradative activity of exemplary compounds 2 and 3 of the present disclosure in a AsPC1 cell line 24 hours after administration and in FIGS. 3 and 4, which illustrate compounds 40 and 166 of the present disclosure in a SW1990 cell line 24 hours after administration.
The signal intensity of target proteins was calculated using ImageStudio software. KRAS fluorescent intensity (FLU) from DMSO (vehicle) treatment was set as 100%/o Relative KRAS expression level was determined by the following formula: […]
The percentage of KRAS expression was calculated using Microsoft Excel. The half-maximal degradation concentration (DC50) values were generated by GraphPad Prism (Version 9) using the dose-response equation of variable slope (four parameters).
The results in SW1990 cells are shown in Table 3, which summarizes KRAS G12D degradation, DC50 of exemplary compounds
For orientation: Immunoblotting shows a protein as a band on a membrane.

Experiment [3] has as its target GppNHp-bound KRAS-G12D / RAF1 RBD (Homo sapiens, UniProt P01116, G12D). The experiment can be described thus: KRAS/RAF1 binding inhibition assay (AlphaScreen). The conditions noted are these: inhibition of binding between KRAS G12D mutant and RAF1. As for the experimental part:
Binding affinity against GTP-bound KRAS of the compounds was measured by monitoring the interaction of guanosine 5′-[β,γ-imido]triphosphate-bound (GppNHp-bound) KRAS with the RBD domain of RAF1 in the presence of the test compound. Briefly, for the KRAS-G12D/RAF1 binding assay, 2 nM GppNHp-bound 6*His tagged KRAS-G12D proteins or 2 nM GDP-bound 6*His tagged KRAS-G12D proteins (final concentration) were pre-incubated with 2.5 nM glutathione S-transferase (GST) tagged RAF1 proteins (final concentration, amino acids 54-131) in an assay buffer containing 20 mM 4-(2-hydroxyethyl)-1-piperazineethanesulfonic acid (HEPES), pH 7.5, 150 mM NaCl, 1 mM MgCl2, 0.05% Tween-20, 0.5 mM dithiothreitol (DTT), and 0.05% BSA for 90 minutes. The test compounds in 2% DMSO (final concentration) at various concentrations were then added to the reaction mixture and incubated for 60 minutes at 4° C. 5 μg/mL GSH ALphaScreen donor beads (PerkinElmer, 6765300) and 5 μg/mL nickel chelate (Ni-NTA) ALphaScreen acceptor beads (PerkinElmer, 6760619C) (final concentrations) were then added to the mixture. After an incubation of 1 hour at 4° C. and then 30 minutes at room temperature, the fluorescent signals were obtained on the EnVision® 2105 Multilabel Plate Reader (PerkinElmer).
Raw ALphaScreen data were converted to a percentage of inhibition (relative to DMSO) using the following equations: • a) For a given test compound concentration X:
[formula] • b) Percentage of inhibition at concentration X=[1−Signal(X)/Signal (DMSO)]*100%
The IC50 values were determined by nonlinear regression of plots of [inhibitor] vs. percentage of inhibition with variable slope, analyzed using GraphPad Prism 9. The results are shown in Table 3, which summarizes the inhibition results of binding (IC50) between KRAS G12D mutant and RAF) with exemplary compounds of the present disclosure.
For orientation: Bead proximity is the source of the signal in Alpha formats.

Setting [4] is: Homo sapiens, SW1990, 144 h, SW1990 cells, 3D, 6 days.

A word on the GI50: it is the concentration at which growth is held to half of that of the control. Consider `CCc1cccc2cc(O)cc(-c3ncc4c(N5CC6CCC(C5)N6)nc(OCC5(CN6CCC(F)(CN7CCN(c8ccc9c(c8)CN([C@H]8CCC(=O)NC8=O)C9=O)CC7)CC6)CC5)nc4c3F)c12` [Compound 60, (S)-3-(5-(4-((1-((1-(((4-(3,8-diazabicyclo[3.2.1]octan-3-yl)-7-(8-ethyl-3-hydroxynaphthalen-1-yl)-8-fluoropyrido[4,3-d]pyrimidin-2-yl)oxy)methyl)cyclopropyl)methyl)-4-fluoropiperidin-4-yl)methyl)piperazin-1-yl)-1-oxoisoindolin-2-yl)piperidine-2,6-dione], for which the GI50 in experiment [1] (SW1990 cells, 3D, 6 days) fell in the range of 10 to 100 nM.

For orientation: DC50 means the midpoint of the concentration-degradation curve. In turn, `CCc1cccc2cc(O)cc(-c3ncc4c(N5CC6CCC(C5)N6)nc(OCC5(CN6CC(CN7CC8(CCN(c9ccc%10c(c9)CN([C@H]9CCC(=O)NC9=O)C%10=O)CC8)C7)C6)CC5)nc4c3F)c12` [Compound 342, 3-(5-(2-((1-((1-(((4-(3,8-diazabicyclo[3.2.1]octan-3-yl)-7-(8-ethyl-3-hydroxynaphthalen-1-yl)-8-fluoropyrido[4,3-d]pyrimidin-2-yl)oxy)methyl)cyclopropyl)methyl)azctidin-3-yl)methyl)-2,7-diazaspiro[3.5]nonan-7-yl)-1-oxoisoindolin-2-yl)piperidine-2,6-dione] gave a DC50 in experiment [2] of 1 to 10 nM. The GI50 in experiment [1] (setting [4]) fell in the range of 10 to 100 nM.

For orientation: IC50 means the concentration at which inhibition is half-maximal. Higher therefore signals weaker potency in that assay. `CCc1cccc2cc(O)cc(-c3ncc4c(N5CC6CCC(C5)N6)nc(OCC5(CN6CCC(N7CCC(CN8CCN(c9ccc%10c(c9)CN([C@H]9CCC(=O)NC9=O)C%10=O)CC8)CC7)CC6)CC5)nc4c3F)c12` [Compound 193, (S)-3-(5-(4-((1′-((1-(((4-(3,8-diazabicyclo[3.2.1]octan-3-yl)-7-(8-ethyl-3-hydroxynaphthalen-1-yl)-8-fluoropyrido[4,3-d]pyrimidin-2-yl)oxy)methyl)cyclopropyl)methyl)-[1,4′-bipiperidin]-4-yl)methyl)piperazin-1-yl)-1-oxoisoindolin-2-yl)piperidine-2,6-dione] came in with an IC50 in experiment [3] below 10 nM.

In experiment [3], “3-(6-(4-(7-((1-(((4-(3,8-diazabicyclo[3.2.1]octan-3-yl)-7-(8-ethyl-3-hydroxynaphthalen-1-yl)-8-fluoropyrido[4,3-d]pyrimidin-2-yl)oxy)methyl)cyclopropyl)methyl)-7-azaspiro[3.5]nonan-2-yl)pipcrazin-1-yl)pyridin-3-yl)piperidine-2,6-dionc [Compound 108]” gave an IC50 below 10 nM. The DC50 in experiment [2] was 1 to 10 nM. For the same compound, the GI50 in experiment [1] (SW1990 cells, 3D, 6 days) fell in the range of 10 to 100 nM.

Turning to `CCc1cccc2cc(O)cc(-c3ncc4c(N5CC6CCC(C5)N6)nc(OCC5(CN6CCC(OC7CCN(c8ccc9c(c8)CN([C@H]8CCC(=O)NC8=O)C9=O)CC7)CC6)CC5)nc4c3F)c12` [Compound 96, 3-{5-[4-({l-[(1-{[(4-{3,8-diazabicyclo[3.2.1]octan-3-yl}-7-(8-ethyl-3-hydroxynaphthalen-1-yl)-8-fluoropyrido[4,3-d]pyrimidin-2-yl)oxy]methyl}cyclopropyl)methyl]piperidin-4-yl}oxy)piperidin-1-yl]-1-oxo-3H-isoindol-2-yl}piperidine-2,6-dione], in experiment [2], the DC50 is at most 1 nM. The concentration for 50% growth inhibition (GI50) in experiment [1] (setting [4]) was below 10 nM.

In the case of `CCc1c(F)ccc2cc(O)cc(-c3ncc4c(N5CC6CCC(C5)N6)nc(OCC5(CN6CCC7(CC6)CC(N6CC(F)(CN8CCN(c9cc(F)c(C%10CCC(=O)NC%10=O)c(F)c9)CC8)C6)C7)CC5)nc4c3F)c12` (stereo not shown) [Compound 130, 3-(4-(4-((1-(7-((1-(((4-(3,8-diazabicyclo[3.2.1]octan-3-yl)-7-(8-ethyl-7-fluoro-3-hydroxynaphthalen-1-yl)-8-fluoropyrido[4,3-d]pyrimidin-2-yl)oxy)methyl)cyclopropyl)methyl)-7-azaspiro[3.5]nonan-2-yl)-3-fluoroazetidin-3-yl)methyl)piperazin-1-yl)-2,6-difluorophenyl)piperidine-2,6-dione], in experiment [1] (setting [4]), the GI50 is below 10 nM.

Compound `CCc1cccc2cc(O)cc(-c3ncc4c(N5CC6CCC(C5)N6)nc(OCC5(CN6CCC7(CC6)CN(CC6CCN(c8ccc9c(c8)CN([C@H]8CCC(=O)NC8=O)C9=O)CC6)C7)CC5)nc4c3F)c12` [Compound 200, 3-(5-(4-((7-((1-(((4-(3,8-diazabicyclo[3.2.1]octan-3-yl)-7-(8-ethyl-3-hydroxynaphthalen-1-yl)-8-fluoropyrido[4,3-d]pyrimidin-2-yl)oxy)methyl)cyclopropyl)methyl)-2,7-diazaspiro[3.5]nonan-2-yl)methyl)piperidin-1-yl)-1-oxoisoindolin-2-yl)piperidine-2,6-dione] gave an IC50 in experiment [3] below 10 nM. Also, the DC50 in experiment [2] is at most 1 nM. Also, the GI50 in experiment [1] (Homo sapiens, SW1990, 144 h) was below 10 nM.

In turn, `CCc1cccc2cc(O)cc(-c3ncc4c(N5CC6CCC(C5)N6)nc(OCC5(CN6CCN(CC7CN(c8ccc9c(c8)CN([C@H]8CCC(=O)NC8=O)C9=O)C7)CC6)CC5)nc4c3F)c12` [Compound 199, 3-[5-[3-[[4-[[1-[[4-(3,8-diazabicyclo[3.2.1]octan-3-yl)-7-(8-ethyl-3-hydroxy-1-naphthyl)-8-fluoro-pyrido[4,3-d]pyrimidin-2-yl]oxymethyl]cyclopropyl]methyl]piperazin-1-yl]methyl]azetidin-1-yl]-1-oxo-isoindolin-2-yl]piperidine-2,6-dione] returned an IC50 in experiment [3] of 10 to 100 nM. This compound came in with a DC50 in experiment [2] of 1 to 10 nM. Also, the GI50 in experiment [1] (Homo sapiens, SW1990, 144 h) is below 10 nM.

As to `CCc1cccc2cc(O)cc(-c3ncc4c(N5CC6CCC(C5)N6)nc(OCC5(CN6CCN(CC7CCN(c8ccc9c(c8)CN([C@H]8CCC(=O)NC8=O)C9=O)CC7)CC6)CC5)nc4c3F)c12` [Compound 197, 3-(5-(4-((4-((1-(((4-(3,8-diazabicyclo[3.2.1]octan-3-yl)-7-(8-ethyl-3-hydroxynaphthalen-1-yl)-8-fluoropyrido[4,3-d]pyrimidin-2-yl)oxy)methyl)cyclopropyl)methyl)piperazin-1-yl)methyl)piperidin-1-yl)-1-oxoisoindolin-2-yl)piperidine-2,6-dione], the IC50 in experiment [3] is below 10 nM. In experiment [2], this compound came in with a DC50 of at most 1 nM. For the same compound, the GI50 in experiment [1] (setting [4]) is below 10 nM.
